“And” between values parts separate entries of the source, which are not always exact repeats. Equal entries are not always repeated. Where two headings read alike, the source gives them in different places.

Here are results for 4 compounds from patent US20250074910A1, “MENIN INHIBITOR AND USE THEREOF” (HITGEN INC., priority 2021, published 2025).

Series [1] relates to MOLM-13. As to the kind of experiment: Cell proliferation inhibition (CellTiter-Glo), MOLM-13. Type of series: cell-based. The following applies: Homo sapiens, MOLM-13, 168 h, MOLM-13 cells. In outline: (§1)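 Cells plated at 5,000-20,000/well, treated with compound at 1 nM to 10 μM final, cultured 72-168 h at 37 °C, 5% CO2. Viability measured by CellTiter-Glo luminescence after 10 min at room temperature; IC50 from curve fitting.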
In general terms: In ATP-based viability assays light output follows the ATP content of the culture.

A short description of series [2]: Stability in human liver microsomes. Type of series: in vitro ADME. As to conditions: 0.5 mg/mL microsomal protein, 1.00 μM compound, NADPH; for half-life at 1 μM: human, liver microsomes, pH 7.4, Human, read-out: Half life T1/2, human liver microsomes. The protocol: (§2) Test Example 3: Test of Stability of Compounds in Liver Microsome
(§3) Test purpose: To determine the stability of some of the compounds of the present disclosure in mouse, dog and human liver microsomes by LC-MS/MS method.
(§4) Test materials: The test drugs were in-house prepared example compounds of the present disclosure; the positive reference compound SNDX-5613 was prepared by the method of Example 253 in patent WO2017214367; the control compound 1 was prepared by the method of Example 64 in WO2017214367; liver microsomes were purchased from CORNING.
(§5) The total volume of each incubation system was approximately 45 μL, and the medium was 100 mM phosphate buffer (PBS, pH 7.4), including liver microsomal protein at a final concentration of 0.5 mg/mL, 1.00 μM compound and 2.00 mM NADPH, and the organic phase content was <1%. Incubation was performed in a 37° C. incubator, and 135 μL of ice-cold acetonitrile was added after 0, 5, 15, 30 and 60 min of reaction to terminate the reaction. The positive control group was incubated with 1.00 μM Ketanserin, 0.5 mg/mL liver microsomal protein and 2.00 mM NADPH in a 37° C. incubator for 0, 5, 15, 30 and 60 min respectively, and then 135 μL of ice-cold acetonitrile was added to terminate the reaction. The 96-well plates were shaken at 600 rpm for 10 min and then centrifuged at 4700 rpm at 4° C. for 15 min. 80 μL of supernatant was mixed with 320 μL of pure water, and the remaining amount of the compound was detected by LC-MS/MS method. The in vitro half life (T½) and intrinsic clearance (CLint) were calculated according to the following formula:
(§6) Intrinsic clearance (Clint)=(0.693/T1/2)×(1/liver microsome concentration)×conversion factor. k is the linear regression slope of the remaining percentage of the ln compound-incubation time.
(Liver microsomes are vesicles of endoplasmic reticulum, rich in cytochrome P450 enzymes.)

Series [3] in a line: Stability in dog liver microsomes. In kind it is in vitro ADME. The following applies: 0.5 mg/mL microsomal protein, 1.00 μM compound, NADPH; for half-life at 1 μM: dog, liver microsomes, pH 7.4, Dog, read-out: Half life T1/2, dog liver microsomes. The protocol:
as §2, §3, §4, §5, §6

Series [4] can be described thus: Stability in mouse liver microsomes. The following applies: 1.00 μM compound, NADPH; for half-life at 1 μM: liver microsomes, pH 7.4, 0.5 mg/mL microsomal protein, read-out: Half life T1/2, mouse liver microsomes. Type of series: in vitro ADME. The protocol:
as §2, §3, §4, §5, §6

For series [5], the system named is OCI-AML3. As to the kind of experiment: Cell proliferation inhibition (CellTiter-Glo), OCI-AML3 (NPM1 mutation). In kind it is cell-based. As to conditions: Homo sapiens, OCI-AML-3, 168 h, OCI-AML3 cells. Put shortly:
as §1

The target in series [6] is T1, hERG potassium ion channel (Homo sapiens (Human), UniProt Q12809). As to the kind of experiment: hERG potassium channel effect test (manual patch clamp, HEK293 cells overexpressing hERG). In kind it is cell-based. As to conditions: for inhibition at 30 μM: human, HEK293 cells overexpressing hERG potassium ion channels, read-out: Average inhibition rate of hERG current at the highest compound tested concentration; for IC50: manual patch clamp, highest test concentration 30 μM. The protocol:
Test Example 6: hERG Potassium Channel Effect Test
The hERG inhibition test was performed on some of the example compounds of the present disclosure using the manual electrophysiological patch clamp method. The cell line was derived from HEK293 cells that overexpressed hERG potassium ion channels. The specific experimental protocol was developed by PharmaCore Labs with reference to literature published in peer-reviewed journals and was performed by PharmaCore Labs in accordance with its standard experimental operating procedures. The highest test concentration was 30 μM.
Background: Block of hERG is tested as a sign of cardiac risk.

For series [7], the target named is Menin/MLL-4-43 peptide interaction (Homo sapiens (Human), UniProt O00255). The experiment in a line: Menin-MLL interaction inhibitory activity assay (fluorescence polarization competition). The following applies: FITC-MLL4-43-peptide, Menin recombinant protein. In kind it is binding. Put shortly:
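Menin (8 nM solution) was preincubated 15 min with compound, then FITC-MLL4-43 peptide (10 nM solution) was added and shaken for 60 min at 25 °C. The buffer was 50 mM Tris pH 7.5, 50 mM NaCl, 1 mM DTT. IC50 was derived from fluorescence polarization read at 485/520 nm.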

Series [8] has as its system MV4-11. The experiment in a line: Cell proliferation inhibition (CellTiter-Glo), MV4-11. In kind it is cell-based. The following applies: Homo sapiens, MV4-11, 72 h, MV4-11 cells. In outline:
as §1

In series [9] the target is T1, hERG potassium ion channel. As to conditions: reported value of the positive reference compound; cited from earlier work.
Series [10] can be described thus: Pharmacokinetics test in mouse. Type of series: in vivo, ICR mice. The following applies: mice, p.o. 10 mg/kg; for F, %: 1 mg/kg for intravenous injection. The source says:
Test Example 4. In Vivo Pharmacokinetic Study
Test purpose: To determine the pharmacokinetic properties of some of the example compounds of the present disclosure in mice, rats and dogs after single intravenous injection (i.v.) and oral gavage (i.g.) administration by LC-MS/MS method.
Research methods: An appropriate amount of compound was weighed and prepared into a transparent clear solution of a certain concentration using 0.9% sodium chloride injection and 1.5 equivalents of 1M HCl aqueous solution based on the molar number of the compound. After SPF male ICR mice, SPF male SD rats, and male beagle dogs were fasted overnight, the test compound solution was given by intravenous injection and oral gavage at the corresponding dose. Anticoagulated whole blood of the test animals was collected at 5 min, 15 min, 30 min, 1 h, 2 h, 4 h, 8 h, and 24 h after administration, and plasma was separated. Plasma samples at each time point were detected by LC-MS/MS, and the plasma concentration of the compound was determined by the standard curve correction method. Phoenix WinNonlin 5.2 non-compartmental model was used to calculate the pharmacokinetic parameters of terminal elimination half-life (t½), blood peak concentration (Cmax), area under the concentration-time curve (AUC), clearance (CL), and bioavailability (F %), which was directly obtained from the serum concentration results. Blood drug concentration and pharmacokinetic parameters are expressed as mean±standard deviation (X±SD). The specific test protocols for each species are as follows.
Pharmacokinetics Test in Mouse
Test animals: SPF male ICR mice, weighing 25-30 g, 12 mice/compound, purchased from Chengdu Dossy Experimental Animal Co., Ltd.
Test design: On the day of the test, ICR mice were randomly divided into groups according to body weight, fasted but with free water for 12-14 h one day before administration, and fed 2 h after administration.
Preparation of test compound solution: The concentration of the test compound for oral gavage was 1 mg/mL. An appropriate amount of compound was weighed and prepared into a 1 mg/mL transparent clear solution using 0.9% sodium chloride injection and 1.5 equivalents of 1M HCl aqueous solution. The concentration of the test compound for intravenous injection was 0.2 mg/mL. The 1 mg/mL transparent clear solution was diluted to a concentration of 0.2 mg/mL using 0.9% sodium chloride injection. The volume of 1 M HCl solution added was calculated as: volume of 1 M HCl solution added […]=weighed amount of compound (mg)/molecular weight×1.5×1000. The amount added during preparation must not exceed the calculated value.
The test substance was administered as follows: intravenous injection: 1 mg/kg of dose, 5 mL/kg of volume, 6 mice; oral gavage: 10 mg/kg of dose, 10 mL/kg of volume, 6 mice.
Sample collection: Blood (40-50 μl) was collected in anticoagulant tubes sprayed with EDTA-K2 through the orbital venous plexus at 5 min, 15 min, 30 min, 1 h, 2 h, 4 h, 8 h, and 24 h after administration, and centrifuged at 10,000 rpm for 20 min within 1 h (the blood was saved on wet ice before and after centrifugation). The supernatant, which was plasma, was collected and frozen in a refrigerator at −20° C. or below for LC-MS/MS analysis of Full PK of male ICR mice (2 mice per group, 4 blood collection time points per mouse, crossover).

The mark [11] stands for this setting: male, ICR, mouse, plasma, po, 10 mg/kg.

T1 sequence (Q12809 whole entry): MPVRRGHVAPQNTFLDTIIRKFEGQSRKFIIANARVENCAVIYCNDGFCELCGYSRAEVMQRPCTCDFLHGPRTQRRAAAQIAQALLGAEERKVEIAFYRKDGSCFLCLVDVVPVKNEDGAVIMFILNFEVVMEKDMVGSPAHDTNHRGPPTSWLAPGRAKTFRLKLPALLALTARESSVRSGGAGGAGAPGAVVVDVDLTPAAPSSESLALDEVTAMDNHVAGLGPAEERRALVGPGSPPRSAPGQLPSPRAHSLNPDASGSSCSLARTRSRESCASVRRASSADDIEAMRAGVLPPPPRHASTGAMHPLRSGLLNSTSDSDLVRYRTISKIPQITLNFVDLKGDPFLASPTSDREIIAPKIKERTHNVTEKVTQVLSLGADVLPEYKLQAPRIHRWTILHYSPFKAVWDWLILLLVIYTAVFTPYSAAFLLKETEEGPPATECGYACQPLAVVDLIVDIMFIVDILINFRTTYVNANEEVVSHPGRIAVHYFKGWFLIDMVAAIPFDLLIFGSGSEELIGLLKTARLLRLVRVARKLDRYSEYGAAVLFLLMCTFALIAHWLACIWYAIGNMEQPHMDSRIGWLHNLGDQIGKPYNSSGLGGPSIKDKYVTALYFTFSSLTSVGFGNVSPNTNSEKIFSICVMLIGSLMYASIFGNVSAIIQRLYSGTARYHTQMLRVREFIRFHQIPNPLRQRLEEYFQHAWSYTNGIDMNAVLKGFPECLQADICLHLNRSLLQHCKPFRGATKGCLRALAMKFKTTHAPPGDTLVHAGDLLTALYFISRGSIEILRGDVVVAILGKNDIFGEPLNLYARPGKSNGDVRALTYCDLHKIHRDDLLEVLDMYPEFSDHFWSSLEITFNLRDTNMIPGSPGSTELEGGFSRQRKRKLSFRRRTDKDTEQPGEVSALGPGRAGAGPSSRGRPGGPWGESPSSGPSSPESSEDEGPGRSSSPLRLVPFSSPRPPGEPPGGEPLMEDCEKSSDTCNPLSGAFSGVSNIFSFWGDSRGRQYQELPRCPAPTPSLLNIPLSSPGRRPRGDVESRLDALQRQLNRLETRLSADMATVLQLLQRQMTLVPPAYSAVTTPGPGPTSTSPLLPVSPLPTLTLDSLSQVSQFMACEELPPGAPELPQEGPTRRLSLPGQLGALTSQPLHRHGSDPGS
Sequence of Menin/MLL-4-43 peptide interaction (O00255 whole entry, species assumed): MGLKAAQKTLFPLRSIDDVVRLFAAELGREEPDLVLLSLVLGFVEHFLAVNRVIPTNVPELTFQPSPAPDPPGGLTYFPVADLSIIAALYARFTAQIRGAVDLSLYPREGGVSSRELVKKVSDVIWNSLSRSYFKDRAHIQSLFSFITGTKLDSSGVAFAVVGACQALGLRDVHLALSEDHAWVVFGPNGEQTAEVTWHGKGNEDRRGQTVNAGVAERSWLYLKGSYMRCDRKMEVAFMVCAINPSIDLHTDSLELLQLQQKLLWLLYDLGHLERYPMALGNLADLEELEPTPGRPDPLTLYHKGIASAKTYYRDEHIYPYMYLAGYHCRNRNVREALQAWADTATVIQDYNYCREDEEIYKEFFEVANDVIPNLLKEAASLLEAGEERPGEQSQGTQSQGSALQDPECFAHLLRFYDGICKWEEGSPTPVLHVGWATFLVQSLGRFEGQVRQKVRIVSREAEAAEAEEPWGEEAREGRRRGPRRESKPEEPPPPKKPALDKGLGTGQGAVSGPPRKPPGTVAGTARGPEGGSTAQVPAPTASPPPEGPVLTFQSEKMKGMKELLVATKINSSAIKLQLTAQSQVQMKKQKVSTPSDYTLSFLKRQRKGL

Take `CCN(C(=O)c1cc(F)ccc1Oc1nncnc1N1CC2(CCN(C[C@H]3CC[C@]4(CC3)C[C@H](COC)C(=O)N4)CC2)C1)C(C)C` [Example 37-1]: the GI50 worked out at 354 nM in [1], 183 nM in [5] and 88.3 nM in [8]. Besides, the half-life at 1 μM in series [2], in [3] and in [4] was more than 2 h in each case. Besides, the inhibition at 30 μM in series [6] was 13.2%. The IC50 in series [6] was more than 30000 nM; in series [7] it was 12.9 nM.
With `CCN(C(=O)c1cc(F)ccc1Oc1cncnc1N1CC2(CCN(C[C@H]3CC[C@H](NS(=O)(=O)CC)CC3)CC2)C1)C(C)C` [SNDX-5613, reference compound], the “Half life T1/2, human liver microsomes” value in series [2] (Human) stood at 0.1998 h. The IC50 in series [9] was 5000 to 15000 nM. In series [3] (Dog), the “Half life T1/2, dog liver microsomes” value worked out at 1.05 h. In [4] (0.5 mg/mL microsomal protein), the “Half life T1/2, mouse liver microsomes” value was determined as 1.178 h. In addition, in [10], the “AUClast” value worked out at 2483 ng·h/mL; the “Cmax” value was 1296 ng/mL; the “T1/2” value was 1.53 h; the “F, %” value came to 88%.
`CCN(C(=O)c1cc(F)ccc1Oc1nncnc1N1CC2(CCN(C[C@H]3CC[C@]4(CC3)CC(COC)(COC)C(=O)N4)CC2)C1)C(C)C` [Example 19]: the GI50 in series [1] was found to be 33.1 nM; in series [5], 28.5 nM; in series [8], 13.2 nM. Also, the half-life at 1 μM is 1.35 h in [2], more than 2 h in series [3] and more than 2 h in series [4]. Besides, the inhibition at 30 μM in series [6] was found to be 12.8%. Also, the IC50 in series [6] was more than 30000 nM.
As to `CC(C)N(C(=O)c1cc(F)ccc1Oc1cncnc1N1CC2(CCN(C[C@H]3CC[C@@]4(CCC(=O)N4)CC3)CC2)C1)C(C)C` [Example 5], the GI50 in series [1] is 46.5 nM. Further, growth in series [5] was halved (GI50) at 242 nM. Besides, in [6], the inhibition at 30 μM was determined as 33.1% and the IC50 was more than 30000 nM. In addition, in series [7], the IC50 came out at 34 nM. In addition, in series [10] (setting [11]), the exposure AUC(0-t) was determined as 7700 ng·h/mL and the half-life was 1.37 h. Also, in [10] (male, ICR, mouse, plasma, po, 10 mg/kg, read-out: Cmax), the Cmax worked out at 2620 ng/mL. Besides, in [10], the “AUClast” value stood at 8285 ng·h/mL; the “Cmax” value turned out to be 2535 ng/mL; the “T1/2” value was 1.91 h; the “F, %” value is 84% and 72%. Further, it took 47.8 nM to inhibit growth in [8] by half (GI50).

The GI50 is the concentration at which growth is held to half of that of the control. Higher therefore signals less potent growth inhibition. By IC50 is commonly meant the midpoint of a concentration-inhibition curve. Usually Cmax stands for the peak of the concentration-time curve. Broadly, the AUC(0-t) is exposure summed from dosing to a finite time, without extrapolation to infinity.
